According to patent US5902583A, “Genetic induction of receptors for targeted radiotherapy” (priority 1997, dated 1999):
Entries after “also recorded” stand apart in the source; their conditions may differ. Read-outs that look alike come from different tables or passages of the source.

How the values were obtained:
SSTR2 = conditions: cited from earlier work
[1] = native somatostatin; cited from earlier work
human IL-4 receptor = conditions: murine ligand; cited from earlier work
[2] = tested on: SKOV3.ip1 tumors expressing mGRPr; assay: Biodistribution and pharmacokinetics of radiolabeled bombesin analogue in mice bearing i.p. SKOV3.ip1 tumors infected with AdCMVGRPr; assay type: in vivo, human SKOV3.ip1 tumors in athymic nude mice
Method: All biodistribution studies were performed in female Balb/c athymic nude mice obtained at 4-5 weeks of age from Frederick Research Laboratory (Frederick, Md.). The peptide mIP-Des-Met-bombesin(7-13)NH2 was synthesized using solid phase peptide synthesis at the UAB Comprehensive Cancer Center Peptide Synthesis and Analysis Shared Facility and has been described elsewhere. Mice were injected i.p. with 2×10^7 SKOV3.ip1 human ovarian carcinoma cells. Five days following cell inoculation, mice were injected i.p. with 1×10^9 pfu of a recombinant adenoviral vector expressing mGRPr. Animals were then injected i.p. 48 hours later with 2 μCi of [^125 I]-mIP bombesin. Mice were sacrificed at 0.5, 2, 5, 15, 30 min and 1, 4, 8, 12 and 24 hours following peptide injection (n=4-10/group) and the following organs were dissected: blood, heart, lungs, liver, stomach, small intestine, spleen, kidney, skin, bone, muscle, uterus, peritoneal lining and thyroid. In addition, tumor nodules were removed from each mouse. All organs, and tumors were weighed and the activity counted in a gamma counter. The % ID/g for each tissue was calculated except for the thyroid in which only the % ID was determined.
Descriptive statistics were calculated to examine the distribution and variation of time concentration of radiolabeled antibody and peptide, and tissue to blood ratio data (means and standard deviations). Means at each specific time point were calculated from multiple mice data for both tissue concentration and tissue to blood ratios. Mean concentration data (% ID/g) over time was used for pharmacokinetical modeling. The pharmacokinetical parameters were estimated by using the NLIN procedure of Statistical Analysis System programs. Selection of models was based on comparison of Akaike's Information Criterion, the minimization of the model's mean squared error and standard error of the estimated model parameters, and the graphical diagnostics of the model fit.
Four different pharmacokinetic models, including one and two compartment elimination models along with one and two-compartment models with an absorption phase were required to fit the time concentration curves for the peptide. […] For each of these, the elimination t1/2 was calculated along with Cmax and AUC. A one-compartment model with an absorption phase was determined to be the best model for abdominal lining and muscle data. For each of these, the elimination t1/2 values for each compartment were calculated along with Cmax and AUC. A two-compartment model with an absorption phase was the best model for blood, kidney, and small intestine data. For each of these, elimination t1/2 values for each compartment and the absorption t1/2 value was calculated along with Cmax, Tmax and AUC.

mGRPr = assay: Binding to murine GRP receptor
mGRPr expressing cells = assay: Internalization and intracellular retention in mGRPr expressing cells; assay type: cell-based, murine
murine IL-4 receptor = conditions: cited from earlier work
IL-4 receptor = assay: Radiolabeled IL-4 binding after adenovirus-polylysine-DNA transduction of IL-4 receptor; conditions: adenovirus-polylysine-DNA conjugates
[3] = tested on: murine gastrin releasing peptide receptor (mGRP-R); assay: Radiolabeled bombesin binding after adenovirus-polylysine-mediated transfection of GRPr; conditions: AdpL, versus uninfected controls
Text: Next, gene mediated expression of receptors was applied in the context of inducing expression of a receptor that could be targeted with a radiolabeled peptide and thus employed the gene encoding the murine gastrin releasing peptide receptor (mGRP-R). The first technique utilized the methodology of an adenovirus-polylysine-mediated transfection (AdpL) to accomplish transient gene expression of mGRP-R in human lung cancer cells.

Question: Which “binding to SSTR2” value (SSTR2) does the source give for `C[C@@H](O)[C@@H]1NC(=O)[C@H](CCCCN)NC(=O)[C@@H](Cc2c[nH]c3ccccc23)NC(=O)[C@H](Cc2ccccc2)NC(=O)[C@@H](NC(=O)[C@H](N)Cc2ccccc2)CSSC[C@@H](C(=O)N[C@H](CO)[C@@H](C)O)NC1=O` [Octreotide] here?
Answer: The value was “binds with high affinity”.

Question: With `C[C@H](N)C(=O)NCC(=O)N[C@H]1CSSC[C@@H](C(=O)O)NC(=O)[C@H](CO)NC(=O)[C@H]([C@@H](C)O)NC(=O)[C@H](Cc2ccccc2)NC(=O)[C@H]([C@@H](C)O)NC(=O)[C@H](CCCCN)NC(=O)[C@H](Cc2c[nH]c3ccccc23)NC(=O)[C@H](Cc2ccccc2)NC(=O)[C@H](Cc2ccccc2)NC(=O)[C@H](CC(N)=O)NC(=O)[C@H](CCCCN)NC1=O` [Somatostatin] as the compound, how does the plasma half-life [1] read?
Answer: The plasma half-life was “minutes”.

Question: With “Murine IL-4: glycoprotein with an approximate molecular weight of 19 kD” as the compound, how does the “binding to the human receptor” value (human IL-4 receptor) read?
Answer: Its value is “does not exhibit binding”.

Question: What does the source list for “[^125 I]-mIP-Des-Met^14 -bombesin(7-13)NH2 [[^125 I]-mIP-bombesin]”?
Answer: concentration in tumor (highest) ([2]; 30 sec after injection, 0.5 min): 33.6±18.2 % ID/g; tumor to blood ratio relative to antibody ([2]; 30 sec, versus e21): 24.8 fold; tumor localization at 4 hours post injection versus [^125 I]-Tyr-bombesin ([2]; 4 hours post injection): much greater; concentration in tumor ([2]; 24 hours after injection): 2.5±2.8 % ID/g; tumor to blood ratio relative to antibody ([2]; 24 hours, versus e21): 15.4 fold; AUC ([2]; abdominal lining): 160.9 percent ID × h/g; Cmax ([2]; abdominal lining): 47.7 percent ID/g; t1/2α ([2]; abdominal lining): 0.1 h; t1/2β ([2]; abdominal lining): 6.5 h; AUC ([2]; blood): 8.0 percent ID × h/g; Cmax ([2]; blood): 1.5 percent ID/g; Tmax ([2]; blood): 0.6 h; t1/2α ([2]; blood): 0.8 h; t1/2β ([2]; blood): 6.7 h; AUC ([2]; bone): 12.8 percent ID × h/g; Cmax ([2]; bone): 1.1 percent ID/g; t1/2β ([2]; bone): 7.9 h; AUC ([2]; heart): 8.3 percent ID × h/g; Cmax ([2]; heart): 0.9 percent ID/g; t1/2β ([2]; heart): 6.6 h; AUC ([2]; kidney): 44.8 percent ID × h/g; Cmax ([2]; kidney): 15.3 percent ID/g; Tmax ([2]; kidney): 0.5 h; t1/2α ([2]; kidney): 0.4 h; t1/2β ([2]; kidney): 4.7 h; tumor to blood ratio ([2]; level after drop from initial peak and rise): about 50; AUC ([2]; liver): 49.2 percent ID × h/g; Cmax ([2]; liver): 9.8 percent ID/g; t1/2β ([2]; liver): 3.5 h; AUC ([2]; lung): 7.6 percent ID × h/g; Cmax ([2]; lung): 1.3 percent ID/g; Tmax ([2]; lung): 0.05 h; t1/2β ([2]; lung): 4.1 h; AUC ([2]; muscle): 12.4 percent ID × h/g; Cmax ([2]; muscle): 3.6 percent ID/g; t1/2α ([2]; muscle): 0.6 h; t1/2β ([2]; muscle): 7.7 h; AUC ([2]; skin): 5.9 percent ID × h/g; Cmax ([2]; skin): 1.0 percent ID/g; Tmax ([2]; skin): 0.4 h; t1/2β ([2]; skin): 3.7 h; AUC ([2]; small intestine): 112 percent ID × h/g; Cmax ([2]; small intestine): 41.7 percent ID/g; Tmax ([2]; small intestine): 0.3 h; t1/2α ([2]; small intestine): 0.6 h; t1/2β ([2]; small intestine): 8.3 h; AUC ([2]; spleen): 71.7 percent ID × h/g; Cmax ([2]; spleen): 10.9 percent ID/g; t1/2β ([2]; spleen): 4.6 h; AUC ([2]; stomach): 172.3 percent ID × h/g; Cmax ([2]; stomach): 10.2 percent ID/g; Tmax ([2]; stomach): 0.05 h; t1/2β ([2]; stomach): 11.7 h; AUC ([2]; tumor): 193.1 percent ID × h/g; Cmax ([2]; tumor): 25.6 percent ID/g; t1/2β (clearance half-life) ([2]; tumor): 5.2 h; AUC ([2]; uterus): 182.8 percent ID × h/g; Cmax ([2]; uterus): 29.2 percent ID/g; t1/2β ([2]; uterus): 4.3 h; peak tumor to blood ratio, bombesin analogue relative to antibody ([2]; versus e21): 12.6 fold; binding to mGRPr (mGRPr): high affinity binding; internalization versus [^125 I]-Tyr-bombesin (mGRPr expressing cells): higher internalization; intracellular retention versus [^125 I]-Tyr-bombesin (mGRPr expressing cells): longer intracellular retention; intracellular retention versus [^125 I]-Tyr-bombesin (mGRPr expressing cells; listed as modified seven amino acid analogue of bombesin): longer retention time within cells

Question: With “^125 I-labeled IL-4: ^125 I-labeled IL-4” as the compound, how does the Ka (murine IL-4 receptor; ^125 I-IL-4, transduced COS-7 cells) read?
Answer: Its Ka is 10^9 -10^10 M^-1.

Question: And the “radiolabeled IL-4 binding to transduced cells” value (IL-4 receptor)?
Answer: Its value is “specific binding”.

Question: For “^125 I-labeled bombesin: ^125 I-labeled bombesin”, which “radiolabeled bombesin binding to transduced cells” value [3] is on record?
Answer: The value was “specific binding; also recorded: successfully demonstrated”.

Question: Which “binding to the murine receptor” value (murine IL-4 receptor; human IL-4) does the source give for human IL-4: human IL-4 here?
Answer: The value was “does not exhibit binding”.
